Reference: patent US6399590B2, “Phosphoglycolipid and methods for its use” (Corixa Corporation, priority 1998, dated 2002)

Test system: Adult mongrel dogs, left anterior descending coronary artery (LAD) occlusion/reperfusion
Assay: Infarct size in the dog, 60 min LAD occlusion and 3 h reperfusion
Format: in vivo
Conditions: AG 30 mg/kg alone, 60 min before occlusion; mean ± SEM
Protocol: Adult mongrel dogs of either sex, weighing 19.0-30.0 kg were fasted overnight, anaesthetized with intravenous sodium barbital (200 mg/kg) and sodium pentobarbital (15 mg/kg), and ventilated with room air supplemented with 100% oxygen at an end expiratory pressure of 5-7 cm H2O to prevent atelectasis. Arterial blood pH PO2 and PCO2 were monitored at selected intervals by an automatic blood gas system and maintained within a normal physiological range (pH 7.35-7.45, PO2 10.6-16.0 kPa, PCO2 3,3-4.7 kPa) by adjusting the respiratory rate and oxygen flow and by an infusion of 1.5% sodium bicarbonate when necessary. Body temperature was maintained at 38±1° C. by using a heating pad.
A double pressure-transducer-tipped catheter was inserted into the aorta and left ventricle via the left carotid artery for measurements of aortic and left ventricular pressure. Left ventricular dP/dt was determined by electronic differentiation of the left ventricular pressure pulse.
A left thoracotomy was performed at the fifth intercostal space. The lung was retracted, the pericardium incised, and the heart suspended in a cradle. A 10-15 mm segment of the left anterior descending coronary artery (LAD) was dissected from surrounding tissue. […]
Regional myocardial blood flow was measured by the radioactive microsphere technique. […]

Structure (SMILES): N=C(N)NN [AG, aminoguanidine, reference compound]
- IS/AAR(%) (infarct size / area at risk): 22.4 ± 2.8%
